# Results as given in patent publication US7056734B1, “Differentiation of non-insulin producing cells into insulin producing cells by GLP-1 or exendin-4 and uses thereof” (The United States of America as represented by the …, priority 1998, dated 2006).
# Legend:
# [1] = system: GLUT2 mRNA; assay: Slot-blot quantitation of GLUT2 mRNA in pancreata and islets; type: in vivo, rat
# Source text: The rats were implanted with an Alzet micro-osmotic pump (Alza Corp., Palo Alto, Calif.) in the interscapular region for 48 hrs. […] Control animals received normal saline in their pumps and received their infusion for the same length of time.
# (§1) After an overnight fast, animals were sacrificed, pancreata were removed and frozen in liquid nitrogen as quickly as possible. RNA was extracted by homogenization in guanidinium isothiocyanate, followed by ultracentrifugation on a 5.7 M cesium chloride cushion (Glisin et al., 1974; Chigwin et al., 1979). Poly-A RNA was then prepared from total RNA by affinity chromatography using oligo (dT) columns (Biolabs INC, Beverly, Mass.). RNA was quantified by spectrophotometric analysis at […]. Slot-blot analysis using poly-A RNA was used for quantitation of mRNA levels of glucokinase, which is the main glucose sensor of the beta cell (Matschinsky, 1990), the three hexokinases, GLUT2, the major glucose transporter of the beta cell (Mueckler, 1990), and insulin. Four micrograms of poly-A RNA were diluted in 50 μl TE buffer (Tris-HCL 10 mM, EDTA 1 mM, pH 7.4), 20 μl of 37% formaldehyde and 20 μl of 10× SSC. Samples were incubated at 60° C. for 15 min and then diluted with 1 ml of ice-cold 10× SSC (1×SCC=0.15 M NaCl+0.015 sodium citrate). […]
# [2] = system: Hexokinase I, II and III mRNA; assay: Slot-blot quantitation of hexokinase I, II and III mRNA in pancreata and islets; type: in vivo, rat; conditions: whole pancreata and islets
# Protocol: as §1, with “Whole pancreata of rats that had been subjected to 48 hrs infusion with GLP-1 or saline were used to extract total RNA. After” for “After”
# RNA isolation and quantitation of mRNAs in islets of Langerhans. […] Slot-Blot analysis was carried out to quantitate mRNA levels of the hexokinases, GLUT2, and insulin.
# [3] = system: pancreata; assay: Pancreas weight after continuous GLP-1 infusion; type: in vivo, rat
# Source text: The pancreata of treated animals weighed 26% more than the pancreata of control animals.
# [4] = system: AR42J cells; assay: RT-PCR of insulin and glucagon mRNA in AR42J cells; type: cell-based, rat
# Protocol: Reverse-transcription polymerase chain reaction (RT-PCR). Total RNA was isolated from treated AR42J cells by the methods of Chomczynski and Sacchi (1987). The total RNA samples were pretreated with DNAse in 20 mM Tris-HCL (pH 8.4), 2 mM MgCl2 and 50 mM KCl to remove any traces of contaminating genomic DNA. RT-PCR was undertaken in a volume of 50 μl of buffer containing 50 mM KCl, 10 mM Tris-HCl, 3.5 mM MgCl2, 200 μM each dNTPs, 0.4 μM each of sense and antisense primers to rat insulin I and II (insulin sense primer=5′[…]3′; insulin antisense primer=5′[…] 3′). Amplification was undertaken for 25 cycles at denaturing temperature 94° C. for 1 min, annealing temperature 60° C. for 45 sec and an extension temperature 72° C. for 1 min. mRNA from RIN 1046-38 cells were used as a positive control. In the case of glucagon RT-PCR, the denaturing and extension temperature was similar to insulin except the annealing temperature was 65° C. for 1 min (glucagon sense primer=5′ […]3′; antisense primer=5′ […]3′). The RT-PCR products were visualized by ethidium bromide staining on 2% agarose gels.
# [5] = system: Wistar rats; conditions: De Ore et al., 1997; cited from earlier work
smiles,measurement,setting,value
CC[C@H](C)[C@H](NC(=O)[C@H](Cc1ccccc1)NC(=O)[C@H](CCC(=O)O)NC(=O)[C@H](CCCCN)NC(=O)[C@H](C)NC(=O)[C@H](C)NC(=O)[C@H](CCC(N)=O)NC(=O)CNC(=O)[C@H](CCC(=O)O)NC(=O)[C@H](CC(C)C)NC(=O)[C@H](Cc1ccc(O)cc1)NC(=O)[C@H](CO)NC(=O)[C@H](CO)NC(=O)[C@@H](NC(=O)[C@H](CC(=O)O)NC(=O)[C@H](CO)NC(=O)[C@@H](NC(=O)[C@H](Cc1ccccc1)NC(=O)[C@@H](NC(=O)CNC(=O)[C@H](CCC(=O)O)NC(=O)[C@H](C)NC(=O)[C@@H](N)Cc1c[nH]cn1)[C@@H](C)O)[C@@H](C)O)C(C)C)C(=O)N[C@@H](C)C(=O)N[C@@H](Cc1c[nH]c2ccccc12)C(=O)N[C@@H](CC(C)C)C(=O)N[C@H](C(=O)N[C@@H](CCCCN)C(=O)NCC(=O)N[C@@H](CCCNC(=N)N)C(N)=O)C(C)C [GLP-1],effect on decreased GLUT-2 mRNA levels,"[1]; old animals (decreased by 70% vs young controls), P<0.001",entirely reversed
same,effect on GLUT2 mRNA levels,[1]; young animals,did not significantly influence
same,"Hexokinase I, II and III mRNA levels",[2],did not appear to be altered
same,pancreas weight increase over control animals,[3],26%
same,rat insulin I and II mRNA by RT-PCR,"[4]; GLP-1-treated for 3 days, none in non-treated cells",demonstrated a 187 bp rat insulin I and II mRNA
same,glucagon mRNA at 236 bp by RT-PCR,"[4]; GLP-1-treated, 48 h",detected
same,dose giving maximal insulin response,[5],0.4 nmol/kg
